Experimental data from patent US9115089B2, “Methyl/fluoro-pyridinyl-methoxy substituted pyridinone-pyridinyl compounds and fluoro-pyrimidinyl-methoxy substituted pyridinone-pyridinyl compounds” (CONFLUENCE LIFE SCIENCES, INC., priority 2013, dated 2015).

Columns and labels:
Type in all cases: cell-based
[1] = system: IL-6 production in A549 cells; assay: IL-1-induced IL-6 production in A549 cells; conditions: Homo sapiens, 3 hours stimulation
Experimental: Adherent A549 cells (approximately 5 million per T75 cm^2 tissue culture flask) are grown in F-12K media containing 10% fetal bovine serum (FBS) plus antibiotics. The cells are trypsinized, washed and resuspended at 0.3 million per milliliter. A549 cells are then distributed into each well of a 96-well flat bottom tissue culture plate ([…]) and the 30,000 cells/well are allowed to recover, incubated, overnight. On the day of the assay fresh media ([…]) is added to the plates followed by the addition of compound ([…]/well, concentration response) for 1 hour. […] After 3 hours, cultured media ([…]/well) is transferred from the assay plate to a Meso Scale custom coated detection plate for determination of IL-6 levels. […] Read buffer ([…]/well, MSD 4× read buffer diluted 4-fold with dH2O) is added and the plate is read using the Meso Scale Sector Imager 6000. Upon electrical stimulation of the detection plate, co-reactants in the read buffer enhance an electrochemical reaction resulting in the release of energy in the form of light. This signal is captured by an internal CCD camera and quantitated. Viability of A549 cells is determined using an MTT assay. […] Isopropanol ([…]) is added to solubilize the resulting formazan crystals and the plate is read at 570 nm/650 nm using a Molecular Devices SpectraMax spectrophotometer.

[2] = system: TNFα production in human whole blood; assay: Endotoxin-induced TNFα production from human whole blood; conditions: LPS 100 ng/ml, 3 hours, read-out: HWB TNFα IC50
Experimental: (§1) Human whole blood (HWB; 25-45 ml) was collected from an NSAID-free donor into vacutainer collection tubes containing sodium heparin (10 ml, 158 USP units), pooled and rocked gently before being distributed into each well of a 96-well round bottom tissue culture plate ([…]). Compounds ([…]/well, concentration response) are added and mixed gently for 15-20 seconds using a disposable 96 polypropylene pin tool before the plates are incubated at 37° C./5% CO2 for 1 hour. The HWB is stimulated with LPS (100 ng/ml) in a final assay volume of […]. After 3 hours, the plates are spun at 240×g for 5 minutes to pellet the red cells. The plasma is carefully transferred to another 96-well round bottom plate and diluted 2-fold with assay media (DMEM containing 10% fetal bovine serum (FBS) plus antibiotics). Finally, the diluted plasma ([…]/well) is transferred to Meso Scale detection plates for determination of IL-1, IL-6 or TNFα.

[3] = system: IL-1β production in human whole blood; assay: Endotoxin-induced IL-1β production from human whole blood; conditions: LPS 100 ng/ml, 3 hours, read-out: HWB IL-1β IC50
Experimental: as §1

[4] = system: IL-6 production in human whole blood; assay: Endotoxin-induced IL-6 production from human whole blood; conditions: LPS 100 ng/ml, 3 hours, read-out: HWB IL-6 IC50
Experimental: as §1

[5] = system: TNFα production in U937 cells; assay: LPS-induced TNFα production in differentiated U937 cells; conditions: Homo sapiens, U-937, LPS 0.1 μg/mL for 4 hours
Experimental: Therefore, inhibition of the p38 MAPK pathway will lower the inflammatory response by decreasing biosynthesis of proinflammatory cytokines. […] Evaluation of the potency and efficacy of p38 inhibitors to block cytokine production is carried out using the human U937 cell line. The U937 human pre-monocytic cell line is obtained from the American Type Culture Collection (Rockville, Md.). These cells are differentiated to a monocytic/macrophage phenotype as described by Burnette (Burnette et al, (2009). SD0006: a potent, selective and orally available inhibitor of p38 kinase, Pharmacology 84(1):42-60). Differentiated U937 cells are seeded into 96-well tissue culture plates (200,000 cells/well) in complete media. After 24 hours, the cells are pretreated for 60 minutes in the presence or absence of compound and then stimulated with LPS (0.1 μg/mL) for 4 hours. Culture media are then collected for determination of TNFα, IL-6 or IL-1β levels by ELISA. Cytokine concentrations are extrapolated from recombinant protein standard curves using a four-parameter logistic model and solving for IC50 after iterating to the best least-squares fit.

IC50 [1]: 1.8 nM
IC50 [5]: 1.6 nM
SMILES: Cc1cnc(-c2ccnc(C(C)(C)O)n2)cc1-n1c(C)cc(OCc2ncc(F)cc2F)c(Cl)c1=O [Compound 49, 3-chloro-4-((3,5-difluoropyridin-2-yl)methoxy)-2′-(2-(2-hydroxypropan-2-yl)pyrimidin-4-yl)-5′,6-dimethyl-2H-[1,4′-bipyridin]-2-one]
IC50 [2]: 13 nM
IC50 [3]: 6 nM
IC50 [4]: 35 nM
